This note sets out measurements from US9624214B2, “Amino-substituted imidazo[1,2-a]pyridinecarboxamides and their use” (BAYER PHARMA AKTIENGESELLSCHAFT, priority 2012, dated 2017).

Counter-ions that a name gives are not always drawn.

The target of the experiment is T1, recombinant guanylate cyclase reporter cell line (Rattus norvegicus, UniProt P19686+P20595).
T1 construct: expressed in transfected cells
T1 sequence (P20595 1-619): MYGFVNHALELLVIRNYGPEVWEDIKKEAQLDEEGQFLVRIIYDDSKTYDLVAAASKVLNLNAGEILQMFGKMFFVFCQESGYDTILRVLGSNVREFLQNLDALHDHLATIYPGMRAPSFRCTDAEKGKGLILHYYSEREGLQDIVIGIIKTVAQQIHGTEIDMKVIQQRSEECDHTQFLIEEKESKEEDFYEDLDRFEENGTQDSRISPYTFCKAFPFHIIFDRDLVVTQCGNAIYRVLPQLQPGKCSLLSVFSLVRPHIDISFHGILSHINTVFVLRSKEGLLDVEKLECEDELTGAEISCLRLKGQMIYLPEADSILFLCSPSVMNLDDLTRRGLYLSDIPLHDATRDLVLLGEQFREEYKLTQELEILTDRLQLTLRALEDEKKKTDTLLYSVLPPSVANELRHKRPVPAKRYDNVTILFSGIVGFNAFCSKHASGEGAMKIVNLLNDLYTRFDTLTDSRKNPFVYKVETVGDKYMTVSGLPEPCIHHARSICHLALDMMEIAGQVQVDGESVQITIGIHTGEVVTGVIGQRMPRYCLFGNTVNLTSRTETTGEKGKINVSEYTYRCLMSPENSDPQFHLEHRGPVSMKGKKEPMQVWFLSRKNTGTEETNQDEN
T1 sequence (P19686 1-690): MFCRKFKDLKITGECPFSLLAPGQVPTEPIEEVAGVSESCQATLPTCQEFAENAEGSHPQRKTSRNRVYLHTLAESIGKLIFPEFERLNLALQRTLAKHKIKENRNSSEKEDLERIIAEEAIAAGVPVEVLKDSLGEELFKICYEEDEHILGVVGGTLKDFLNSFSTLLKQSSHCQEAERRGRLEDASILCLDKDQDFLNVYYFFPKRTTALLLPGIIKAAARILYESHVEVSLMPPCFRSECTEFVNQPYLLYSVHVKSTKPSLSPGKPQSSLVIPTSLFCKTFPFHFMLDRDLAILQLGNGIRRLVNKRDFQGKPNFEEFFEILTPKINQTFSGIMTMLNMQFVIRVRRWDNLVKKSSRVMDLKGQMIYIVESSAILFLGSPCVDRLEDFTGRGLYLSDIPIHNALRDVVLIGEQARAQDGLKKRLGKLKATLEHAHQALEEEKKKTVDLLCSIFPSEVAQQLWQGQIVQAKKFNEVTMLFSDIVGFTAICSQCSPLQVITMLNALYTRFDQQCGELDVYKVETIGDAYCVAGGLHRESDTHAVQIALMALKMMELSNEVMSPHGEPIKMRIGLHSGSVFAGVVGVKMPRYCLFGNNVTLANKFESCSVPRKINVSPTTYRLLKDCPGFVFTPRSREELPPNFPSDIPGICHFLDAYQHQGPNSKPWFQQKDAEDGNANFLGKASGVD
Description: B-2. Action on recombinant guanylate cyclase reporter cell line. Format: cell-based. The settings on record: MEC = minimal effective concentration; in some cases mean values from individual determinations. A digest of the protocol:
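Whole-cell reporter assay with recombinant guanylate cyclase; endpoint = minimal effective concentration.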

`Cc1nc2c(OCc3c(F)cccc3F)cc(F)cn2c1C(=O)NCC(C)(C)N` [Example 140, N-(2-Amino-2-methylpropyl)-8-[(2,6-difluorobenzyl)oxy]-6-fluoro-2-methylimidazo[1,2-a]-pyridine-3-carboxamide]: the MEC is 1.00 µM. For the compound `Cc1nc2c(OCc3c(F)cccc3F)cccn2c1C(=O)NC(C)(C)C(C)(C)N` [Example 141, N-(3-Amino-2,3-dimethylbutan-2-yl)-8-[(2,6-difluorobenzyl)oxy]-2-methylimidazo[1,2-a]pyridine-3-carboxamide], the MEC stood at 3.00 µM. As for `Cc1nc2c(OCc3c(F)cccc3F)cccn2c1C(=O)NCCN1CCC(F)(F)C1` [Example 143, 8-[(2,6-difluorobenzyl)oxy]-N-[2-(3,3-difluoropyrrolidin-l-yl)ethyl]-2-methylimidazo[1,2-a]pyridine-3-carboxamide], the figure is 0.30 µM. Regarding `COCCNCCNC(=O)c1c(C)nc2c(OCc3c(F)cccc3F)cccn12` [Example 144, 8-[(2,6-difluorobenzyl)oxy]-N-{2-[(2-methoxyethyl)amino]ethyl}-2-methylimidazo[1,2-a]pyridine-3-carboxamide], the MEC turned out to be 3.00 µM. For `Cc1nc2c(OCc3c(F)cccc3F)cccn2c1C(=O)NCC(C)(C)N(C)C` [Example 145, 8-[(2,6-difluorobenzyl)oxy]-N-[2-(dimethylamino)-2-methylpropyl]-2-methylimidazo[1,2-a]pyridine-3-carboxamide], the MEC is 3.00 µM. As for `Cc1nc2c(OCc3c(F)cccc3F)cccn2c1C(=O)NCCN(CC(F)F)C1CC1` [Example 146, N-{2-[cyclopropyl(2,2-difluoroethyl)amino]ethyl}-8-[(2,6-difluorobenzyl)oxy]-2-methylimidazo[1,2-a]-pyridine-3-carboxamide], the figure is 1.00 µM; as for `Cc1nc2c(OCc3c(F)cccc3F)cc(Cl)cn2c1C(=O)NCC(C)(C)N1CCCC1` [Example 148, 6-chloro-8-[(2,6-difluorobenzyl)oxy]-2-methyl-N-[2-methyl-2-(pyrrolidin-1-yl)-propyl]imidazo[1,2-a)pyridine-3-carboxamide], 1.00 µM.

As for `Cc1nc2c(OCc3c(F)cccc3F)cc(Cl)cn2c1C(=O)NCCNC(C)C` [Example 149, 6-chloro-8-[(2,6-difluorobenzyl)oxy]-N-[2-(isopropylamino)ethyl]-2-methylimidazo[1,2-a]-pyridine-3-carboxamide], the MEC came to 1.00 µM. Turning to `Cc1nc2c(OCc3c(F)cccc3F)cc(Cl)cn2c1C(=O)NCCN(CC(F)F)C1CC1` [Example 150, 6-chloro-N-{2-[cyclopropyl(2,2-difluoroethyl)-amino]ethyl}-8-[(2,6-difluorobenzyl)oxy]-2-methylimidazo[1,2-a]pyridine-3-carboxamide], the MEC worked out at 0.10 µM.

Consider `Cc1nc2c(OCc3c(F)cccc3F)cc(Cl)cn2c1C(=O)NCCN1CCC(F)(F)CC1` [Example 151, 6-chloro-8-[(2,6-difluorobenzyl)oxy]-N-[2-(4,4-difluoropiperidin-1-yl)ethyl]-2-methylimidazo[1,2-a]pyridine-3-carboxamide], for which the MEC was determined as 0.10 µM. The figure for `Cc1nc2c(OCc3c(F)cccc3F)cc(Cl)cn2c1C(=O)NCCN1CCN(C(C)C)CC1` [Example 152, 6-chloro-8-[(2,6-difluorobenzyl)oxy]-N-[2-(4-isopropylpiperazin-1-yl)ethyl]-2-methyl-imidazo[1,2-a]pyridine-3-carboxamide] is 1.00 µM; for `COCCNCCNC(=O)c1c(C)nc2c(OCc3c(F)cccc3F)cc(Cl)cn12` [Example 153, 6-chloro-8-[(2,6-difluorobenzyl)oxy]-N-{2-[(2-methoxyethyl)amino]ethyl}-2-methylimidazo[1,2-a]pyridine-3-carboxamide] it is 1.00 µM; for `Cc1nc2c(OCc3c(F)cccc3F)cc(Cl)cn2c1C(=O)NCCN1CCN(C)CC1` [Example 154, 6-chloro-8-[(2,6-difluorobenzyl)oxy]-2-methyl-N-[2-(4-methylpiperazin-1-yl)ethyl]imidazo[1,2-a]pyridine-3-carboxamide] it is 1.00 µM. Regarding `Cc1nc2c(OCc3c(F)cccc3F)cc(Cl)cn2c1C(=O)NCC1(N)CCC1` [Example 155, N-[(1-aminocyclobutyl)methyl]-6-chloro-8-[(2,6-difluorobenzyl)oxy]-2-methylimidazo[1,2-a]-pyridine-3-carboxamide trifluoroacetate], the MEC stood at 0.30 µM. As for `Cc1nc2c(OCc3c(F)cccc3F)cc(Cl)cn2c1C(=O)NCCN1CC(N2CCCC2)C1` [Example 156, 6-chloro-8-[(2,6-difluorobenzyl)oxy]-2-methyl-N-{2-[3-(pyrrolidin-1-yl)azetidin-1-yl]ethyl}-imidazo[1,2-a]pyridine-3-carboxamide], the figure is 3.00 µM; as for `Cc1nc2c(OCc3c(F)cccc3F)cc(Cl)cn2c1C(=O)NCCN1C[C@@H](C)O[C@@H](C)C1` [Example 158, 6-chloro-8-[(2,6-difluorobenzyl)oxy]-N-{2-[(2R,6S)-2,6-dimethylmorpholin-4-yl]ethyl}-2-methylimidazo[1,2-a]pyridine-3-carboxamide], 0.30 µM; as for `Cc1cc(OCc2c(F)cccc2F)c2nc(C)c(C(=O)NC3CCCC(N)C3)n2c1` (stereo not shown) [Example 160, N-(3-aminocyclohexyl)-8-[(2,6-difluorobenzyl)oxy]-2,6-dimethylimidazo[1,2-a]-pyridine-3-carboxamide], 1.00 µM. As to `Cc1cc(OCc2c(F)cccc2F)c2nc(C)c(C(=O)NCCN3CC(N4CCCC4)C3)n2c1` [Example 162, 8-[(2,6-difluorobenzyl)oxy]-2,6-dimethyl-N-{2-[3-(pyrrolidin-1-yl)azetidin-1-yl]ethyl}imidazo[1,2-a]pyridine-3-carboxamide], the MEC was found to be 3.00 µM. Consider `Cc1cc(OCc2c(F)cccc2F)c2nc(C)c(C(=O)NCCN3CCC(F)(F)CC3)n2c1` [Example 163, 8-[(2,6-difluorobenzyl)oxy]-N-[2-(4,4-difluoro-piperidin-1-yl)ethyl]-2,6-dimethylimidazo[1,2-a]pyridine-3-carboxamide], for which the MEC turned out to be 0.30 µM. Turning to `Cc1cc(OCc2c(F)cccc2F)c2nc(C)c(C(=O)NCCN(CC(F)F)C3CC3)n2c1` [Example 164, N-{2-[cyclopropyl(2,2-difluoroethyl)amino]ethyl}-8-[(2,6-difluorobenzyl)oxy]-2,6-dimethylimidazo[1,2-a]-pyridine-3-carboxamide], the MEC is 0.10 µM.

Regarding `Cc1cc(OCc2c(F)cccc2F)c2nc(C)c(C(=O)NCC3(N)CCC3)n2c1` [Example 165, N-[(1-aminocyclobutyl)methyl]-8-[(2,6-difluorobenzyl)oxy]-2,6-dimethylimidazo[1,2-a]-pyridine-3-carboxamide], the MEC was found to be 0.10 µM.

Turning to `Cc1cc(OCc2c(F)cccc2F)c2nc(C)c(C(=O)NCCN3C[C@@H](C)O[C@@H](C)C3)n2c1` [Example 167, 8-[(2,6-difluorobenzyl)oxy]-N-{2-[(2R,6S)-2,6-dimethylmorpholin-4-yl]ethyl}-2,6-dimethyl-imidazo[1,2-a]pyridine-3-carboxamide], the MEC was determined as 1.00 µM.

In the case of `Cc1nc2c(OCc3c(F)cccc3F)cccn2c1C(=O)NCCN1CCN(C2CC2)CC1` [Example 168, N-[2-(4-Cyclopropylpiperazin-1-yl)ethyl]-8-[(2,6-difluorobenzyl)oxy]-2-methylimidazo[1,2-a]-pyridine-3-carboxamide], the MEC was found to be 1.00 µM. In the case of `Cc1nc2c(OCc3c(F)cccc3F)cccn2c1C(=O)NCCNCC(F)F` [Example 169, 8-[(2,6-difluorobenzyl)oxy]-N-{2-[(2,2-difluoroethyl)amino]ethyl}-2-methylimidazo[1,2-a]pyridine-3-carboxamide], the MEC is 1.65 µM. On to `Cc1nc2c(OCc3c(F)cccc3F)cccn2c1C(=O)N[C@H](C)CN1CCOCC1` [Example 170, 8-[(2,6-difluorobenzyl)oxy]-2-methyl-N-[(2R)-1-(morpholin-4-yl)propan-2-yl]imidazo[1,2-a]-pyridine-3-carboxamide], for which the MEC turned out to be 3.00 µM.
